This note sets out measurements from patent publication US20260139006A1, “CYCLIC PEPTIDE AS INHIBITORS OF FREE-LIVING AMOEBA” (Purdue Research Foundation, priority 2024, published 2026).

The nature of the series: Mammalian cytotoxicity counter screening (CellTiter-Glo). The format is cell-based. To be noted: human; read-out: A549 IC50 (cytotoxicity). A general note: A counterscreen serves to expose hits that act by an unwanted route or on another target.

A word on the IC50: it is the point on the concentration scale where inhibition reaches its midpoint.

Protocol: Cytotoxicity of the cyclic peptides was also determined by using the CellTiter-Glo 2.0® assay on A549 human lung carcinoma cells. A549 cells were seeded at a concentration of 1.6×10^4 cells/mL in 96-well plates in the presence of serially diluted compounds, as described above. DMSO (1%) and 100 μM of chlorhexidine were used as the negative and positive controls. A549 were grown in F12K medium supplemented with 10% FBS and 1% penicillin/streptomycin antibiotics. […] The total volume of each well was 100 μL, containing 10 μL compounds and 90 μL cells, and plates were incubated at 37° C., 5% CO2 for 72 hours. At the 72-hours time point, CellTiter-Glo 2.0 Reagent® was added to all the wells and read by the SpectraMax® i3X plate reader as described above. Curve fitting using non-linear regression was carried out using the average of replicates and the Levenberg-Marquardt algorithm, using DMSO as the normalization control, as defined in CDD Vault. The selectivity index (SI) was calculated by using the equation: SI=(IC50 of A549's)/(IC50 of Balamuthia mandrillaris) to determine the specificity of inhibitors.

For `N=C(N)c1ccc(OCCCCCOc2ccc(C(=N)N)cc2)cc1` [pentamidine], the 50% inhibitory concentration (IC50) at 72 h worked out at 12.8 µM.
